Patent publication US6653306B1, “Epoxy-steroidal aldosterone antagonist and angiotensin II antagonist combination therapy” (G.D. Searle & Co., priority 1995, dated 2003)
pIC50: −log10 of the molar value.

Key:
[1] = molecular target: angiotensin II AT1 receptor; test: Assay A: Angiotensin II binding activity (125I-AII displacement, rat uterine membrane preparation)
Method: Assay A: Antiotensin II Binding Activity
Compounds of the invention were tested for ability to bind to the smooth muscle angiotensin II receptor using a rat uterine membrane preparation. […] Rat uterine membranes were prepared from fresh tissue. All procedures were carried out at 4° C. Uteri were stripped of fat and homogenized in phosphate-buffered saline at pH 7.4 containing 5 mM EDTA. The homogenate was centrifuged at 1500×g for 20 min., and the supernatant was recentrifuged at 100,000×g for 60 min. The pellet was resuspended in buffer consisting of 2 mM EDTA and 50 mM Tris-HCl (pH 7.5) to a final protein concentration of 4 mg/ml. […] The reaction was initiated by the addition of membrane protein and the mixture was incubated at 25° C. for 60 min. The incubation was terminated with ice-cold 50 mM Tris-HCl (pH 7.5) and the mixture was filtered to separate membrane-bound labelled peptide from the free ligand. The incubation tube and filter were washed with ice-cold buffer. Filters were assayed for radioactivity in a Micromedic gamma counter.
Nonspecific binding was defined as binding in the presence of 10 μM of unlabelled AII. Specific binding was calculated as total binding minus nonspecific binding. […] Binding data were analyzed by a nonlinear least-squares curve fitting program.

[2] = system: pressor response to AII; test: Assay C: In vivo intragastric pressor assay response for AII antagonists; set-up: species or system rat; conditions: intragastric, or intraduodenal for examples listed; for inhibition at 3 mg/kg / Assay C Duration: dose 3 mg/kg
Method: Assay C: In Vivo Intragastric Pressor Assay Response for AII Antagonists
Male Sprague-Dawley rats weighing 225-300 grams were anesthetized with methohexital (30 mg/kg, i.p.) and catheters were implanted into the femoral artery and vein. The catheters were tunneled subcutaneously to exit dorsally, posterior to the head and between the scapulae. The catheters were filled with heparin (1000 units/ml of saline). The rats were returned to their cage and allowed regular rat chow and water ad libitum. After full recovery from surgery (3-4 days), rats were placed in Lucite holders and the arterial line was connected to a pressure transducer. Arterial pressure was recorded on a Gould polygraph (mmHg). Angiotensin II was administered as a 30 ng/kg bolus via the venous catheter delivered in a 50 μl volume with a 0.2 ml saline flush. The pressor response in mm Hg was measured by the differer.-:e from pre-injection arterial pressure to the maximum pressure achieved. The AII injection was repeated every 10 minutes until three consecutive injections yielded responses within 4 mmHg of each other. These three responses were then averaged and represented the control response to AII. The test compound was suspended in 0.5% methylcellulose in water and was administered by gavage. The volume administered was 2 ml/kg body weight. The standard dose was 3 mg/kg. Angiotensin II bolus injections were given at 30, 45, 60, 75, 120, 150, and 180 minutes after gavage. The pressor response to AII was measured at each time point. The rats were then returned to their cage for future testing. A minimum of 3 days was allowed between tests. Percent inhibition was calculated for each time point following gavage by the following formula:
[(Control Response—Response at time point)/Control Response]×100.

| pIC50 [1] | Structure (SMILES) | inhibition at 3 mg/kg ([2]; Rattus norvegicus) | Assay C Duration [2] | other results |
| --- | --- | --- | --- | --- |
| 8.10 | CCCCc1nn(CC(=O)c2ccccc2)c(=O)n1Cc1ccc(-c2ccccc2-c2nn[nH]n2)cc1 [Compound 82] |  |  | Assay C Inhibition ([2]; dose cell empty (dose not given)): 20% |
| 7.89 | CCCCn1nc(CCc2cccs2)nc1Cc1ccc(-c2ccccc2-c2nnn[nH]2)nc1 [Compound 153] | 25% | >180 min |  |
| 7.68 | CCCCn1nc(C(O)CCC)nc1Cc1ccc(-c2ccccc2-c2nnn[nH]2)nc1 (stereo not drawn) [Compound 159] | 10% | 150 min |  |
| 7.59 | CCCCn1nc(C(F)(F)CCC)nc1Cc1ccc(-c2ccccc2-c2nnn[nH]2)nc1 [Compound 170] | 40% | >180 min |  |
| 7.55 | CCCCn1nc(C(=O)N(C)C(C)(C)C)nc1Cc1ccc(-c2ccccc2-c2nnn[nH]2)nc1 [Compound 171] | 0% | 0 min |  |
| 7.57 | CCCCn1nc(C(OC)OC)nc1Cc1ccc(-c2ccccc2-c2nnn[nH]2)nc1 [Compound 175] | 0% | 0 min |  |
| 7.70 | CCCCn1nc(C2OCCCO2)nc1Cc1ccc(-c2ccccc2-c2nnn[nH]2)nc1 [Compound 180] | 25% | 180 min |  |
| 7.68 | CCCCn1nc(C2OCC(C)(C)CO2)nc1Cc1ccc(-c2ccccc2-c2nnn[nH]2)nc1 [Compound 181] | 20% | 180 min |  |
| 8.19 | CCCCc1cn(CCCC)c(=O)n1Cc1ccc(-c2ccccc2-c2nnn[nH]2)nc1 [Compound 185] | 50% | >180 min |  |
| 7.42 | CCCc1cn(CCC)c(=O)n1Cc1ccc(-c2ccccc2-c2nnn[nH]2)nc1 [Compound 186] | 25% | 180 min |  |
| 8.00 | CCCCCc1cn(CCCC)c(=O)n1Cc1ccc(-c2ccccc2-c2nnn[nH]2)nc1 [Compound 190] | 10% | 180 min |  |
| 7.09 | CCCCn1cc(C2CCCCC2)n(Cc2ccc(-c3ccccc3-c3nnn[nH]3)nc2)c1=O [Compound 191] | 10% | 180 min |  |
| 7.96 | CCCCn1cc(CCC2CC2)n(Cc2ccc(-c3ccccc3-c3nnn[nH]3)nc2)c1=O [Compound 193] | 10% | 180 min |  |
| 8.12 | CCCCc1cn(CCC(C)C)c(=O)n1Cc1ccc(-c2ccccc2-c2nnn[nH]2)nc1 [Compound 198] | 35% | >180 min |  |
|  | CCCCc1nc(CCCC)n(Cc2ccc(-c3ccccc3-c3nnn[nH]3)nc2)n1 [Compound 241] | 40% |  |  |
| 6.54 | CCCCc1nc(-c2ccccc2OC)n(Cc2ccc(-c3ccccc3-c3nnn[nH]3)nc2)n1 [Compound 266] |  |  |  |
| 8.01 | CCCCc1nc(-c2c(F)cccc2F)nn1Cc1ccc(-c2ccccc2-c2nnn[nH]2)nc1 [Compound 269] |  |  |  |
| 7.68 | CCCCc1nc(-c2c(F)cccc2F)n(Cc2ccc(-c3ccccc3-c3nnn[nH]3)nc2)n1 [Compound 270] |  |  |  |
|  | CCCCc1nc(CCCC)n(Cc2ccc(-c3ccccc3C(=O)O)cc2)n1 [compound 2] |  |  | inhibition at 10 mg/kg ([2]; Rattus norvegicus): 95%; inhibition at 30 mg/kg ([2]; Rattus norvegicus): 98% |
|  | CCCCc1nc(CCCC)n(Cc2ccc(-c3ccccc3-c3nnn[nH]3)cc2)n1 [compound 3] |  |  | inhibition at 10 mg/kg ([2]; Rattus norvegicus): 50%; inhibition at 30 mg/kg ([2]; Rattus norvegicus): 100% |
|  | CCCCc1nc(CCCC)n(Cc2ccc(-c3ccccc3C(=O)NNS(=O)(=O)C(F)(F)F)cc2)n1 [compound 5] |  |  | inhibition at 30 mg/kg ([2]; Rattus norvegicus): 38% |
|  | CCCCc1nc(Cl)n(Cc2ccc(-c3ccccc3-c3nnn[nH]3)cc2)n1 [compound 9] |  |  | inhibition at 30 mg/kg ([2]; Rattus norvegicus): 80%; inhibition at 100 mg/kg ([2]; Rattus norvegicus, dose 100 mg/kg): 100% |
|  | CCCCc1nc(C(F)(F)CCC)nn1Cc1ccc(-c2ccccc2-c2nnn[nH]2)cc1 [compound 10] | 86% |  | inhibition at 30 mg/kg ([2]; Rattus norvegicus): 100% |
